Publication PMC12309256 (Current Research in Microbial Sciences, 2025)

Tested on: AsDddY
Experiment: HPLC of acrylate, initial rates, nonlinear Michaelis-Menten fit
Format: biochemical, Acinetobacter sp. ZS25
Conditions: pH 8.0, 50 °C; 0.5 nM enzyme; DMSP 1-20 mM

SMILES: C[S+](C)CCC(=O)[O-] [DMSP, dimethylsulfoniopropionate]
- Km: 2600 µM
